The text below walks through data of ChEMBL document CHEMBL5614367, “Hydroxamic acid hybrids: Histone deacetylase inhibitors with anticancer therapeutic potency” (Eur J Med Chem, 2023).

In series [1] the test system is KYSE-450. In words: Antiproliferative activity against human KYSE-450 cells. It is filed as functional, cell-based.
For series [2], the system named is MGC-803. In words: Antiproliferative activity against human MGC-803 cells. It is filed as functional, cell-based.
The subject of a further series is BGC-823. In words: Antiproliferative activity against human BGC-823 cells. It is filed as functional, cell-based.
The subject of another series is HGC-27. In words: Antiproliferative activity against human HGC-27 cells. It is filed as functional, cell-based.
Series [3] relates to MGC-803. In words: Antitumor activity against human MGC-803 cells xenografted in mouse assessed as tumor growth inhibition at 20 mg/kg relative to control. It is filed as functional. The settings on record: read-out: TGI. For orientation: Xenograft models place foreign cells or tissue in a host animal.
Series [4] relates to KYSE-450. In words: Potency index, ratio of vorinostat IC50 to test compound IC50 for antiproliferative activity against human KYSE-450 cells. The class given is functional.
Series [5] relates to HCT-116. In words: Potency index, ratio of vorinostat IC50 to test compound IC50 for antiproliferative activity against human HCT-116 cells. The class given is functional.
The subject of series [6] is KYSE-450. In words: Potency index, ratio of TAE-226 IC50 to test compound IC50 for antiproliferative activity against human KYSE-450 cells. The class given is functional.
In series [7] the test system is HCT-116. In words: Potency index, ratio of TAE-226 IC50 to test compound IC50 for antiproliferative activity against human HCT-116 cells. It is filed as functional.
Series [8] deals with T1, Protein deacetylase HDAC6 (Homo sapiens, UniProt Q9UBN7).
T1 sequence (Q9UBN7 whole entry): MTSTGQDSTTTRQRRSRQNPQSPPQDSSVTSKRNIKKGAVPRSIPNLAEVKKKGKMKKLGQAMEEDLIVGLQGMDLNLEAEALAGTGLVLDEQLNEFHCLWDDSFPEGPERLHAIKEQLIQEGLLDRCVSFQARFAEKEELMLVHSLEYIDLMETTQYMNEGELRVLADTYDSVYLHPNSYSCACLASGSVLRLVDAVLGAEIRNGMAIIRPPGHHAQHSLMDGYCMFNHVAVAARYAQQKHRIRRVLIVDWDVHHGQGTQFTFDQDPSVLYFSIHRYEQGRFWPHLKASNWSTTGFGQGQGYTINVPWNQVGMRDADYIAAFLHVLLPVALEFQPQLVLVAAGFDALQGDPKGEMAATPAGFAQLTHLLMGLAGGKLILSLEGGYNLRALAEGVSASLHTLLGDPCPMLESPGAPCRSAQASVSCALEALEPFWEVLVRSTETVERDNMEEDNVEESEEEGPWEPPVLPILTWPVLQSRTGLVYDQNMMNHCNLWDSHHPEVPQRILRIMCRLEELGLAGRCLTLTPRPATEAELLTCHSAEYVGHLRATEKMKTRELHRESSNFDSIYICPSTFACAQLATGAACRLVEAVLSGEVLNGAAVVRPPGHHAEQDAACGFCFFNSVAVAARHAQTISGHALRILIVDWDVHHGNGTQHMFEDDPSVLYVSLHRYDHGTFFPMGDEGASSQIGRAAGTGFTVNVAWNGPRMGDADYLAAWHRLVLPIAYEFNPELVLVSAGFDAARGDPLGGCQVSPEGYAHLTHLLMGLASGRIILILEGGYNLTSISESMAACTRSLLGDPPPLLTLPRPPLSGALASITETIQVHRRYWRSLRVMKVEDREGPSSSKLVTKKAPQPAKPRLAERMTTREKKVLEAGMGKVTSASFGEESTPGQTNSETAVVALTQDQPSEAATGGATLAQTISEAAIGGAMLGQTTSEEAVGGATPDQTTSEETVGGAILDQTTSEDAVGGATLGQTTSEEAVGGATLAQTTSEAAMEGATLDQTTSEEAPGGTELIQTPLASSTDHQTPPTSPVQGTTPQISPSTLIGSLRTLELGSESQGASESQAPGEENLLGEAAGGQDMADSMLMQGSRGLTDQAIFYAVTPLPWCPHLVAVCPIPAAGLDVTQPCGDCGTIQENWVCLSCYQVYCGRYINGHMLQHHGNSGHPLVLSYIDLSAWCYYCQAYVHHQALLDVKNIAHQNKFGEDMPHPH
In words: Inhibition of HDAC6 (unknown origin).

A further series concerns the target Focal adhesion kinase 1 (Homo sapiens, UniProt Q05397). In words: Inhibition of FAK (unknown origin).
Series [9] has as its system HCT-116. In words: cells. The settings on record: Homo sapiens.
Description: Antiproliferative activity against human HCT-116 cells
Series [10] is described as follows: Metabolic stability in rat liver microsomes assessed as half life. The class given is ADME, Microsome.
The target in series [11] is Histone deacetylase. In words: Inhibition of HDAC in human HeLa cell nuclear extract using Boc-Lys(Ac)-AMC as substrate. The class given is subcellular, Nucleus.
Series [12] can be described thus: Metabolic stability in human liver microsomes assessed as half life. It is filed as ADME, Microsome.
Series [13] is described as follows: Toxicity in female BALB/c mouse assessed as maximum tolerable dose. To be noted: in vivo.
A short description of series [14]: Half life in BALB/c mouse at 50 mg/kg, po. The class given is ADME, organism-based. The settings on record: in vivo.
Series [15] is described as follows: Tmax in BALB/c mouse at 50 mg/kg, po. To be noted: in vivo. The class given is ADME, organism-based.
A short description of series [16]: Cmax in BALB/c mouse at 50 mg/kg, po. The class given is ADME, organism-based. To be noted: in vivo.
Series [17] can be described thus: Oral bioavailability in BALB/c mouse at 50 mg/kg. The settings on record: in vivo. It is filed as ADME, organism-based.
Another series relates to PC-3. In words: cells. The settings on record: Homo sapiens, time 96 hrs. The class given is functional.
In series [18] the target is Histone deacetylase. In words: Inhibition of HDAC in human HeLa cell nuclear extract using Boc-Lys(Ac)-AMC as substrate preincubated for 15 mins followed by substrate addition and measured after 60 mins by fluorescence based analysis. It is filed as subcellular, Nucleus.
Series [19] has as its target MAP kinase-interacting serine/threonine-protein kinase 1 (Homo sapiens) (UniProt Q9BUB5). In words: Inhibition of MNK1 (unknown origin) at 1 uM incubated for 60 mins by HTRF assay relative to control. In general terms: Time-resolved FRET reads energy transfer from a long-lived donor to a nearby acceptor.
For series [20], the target named is MAP kinase-interacting serine/threonine-protein kinase 2 (Homo sapiens) (UniProt Q9HBH9). In words: Inhibition of MNK2 (unknown origin) at 1 uM incubated for 60 mins by HTRF assay relative to control.
In the next series the test system is K562. In words: cells. The class given is functional, cell-based. To be noted: Homo sapiens, K562, 72 h.
Series [21] deals with U-266. In words: cells. It is filed as functional, cell-based. To be noted: Homo sapiens, U-266, 72 h.
Description: Antiproliferative activity against human U-266 cells assessed as inhibition of cell growth measured after 72 hrs by CCK-8 assay
The test system of the next series is U-937. In words: cells. The class given is functional, cell-based. The settings on record: Homo sapiens, U-937, 72 h.
The next series concerns C6. In words: cells. The class given is functional, cell-based. To be noted: Rattus norvegicus, C6, 72 h.
A further series relates to FaDu. In words: cells. It is filed as functional, cell-based. The settings on record: Homo sapiens, 72 h.
The next series has as its system MDA-MB-231. In words: cells. The class given is functional, cell-based. The settings on record: Homo sapiens, MDA-MB-231, 72 h.
The next series deals with MDA-MB-468. In words: cells. It is filed as functional, cell-based. To be noted: Homo sapiens, MDA-MB-468, 72 h.
In the next series the test system is A549. In words: cells. The class given is functional, cell-based. To be noted: Homo sapiens, A549, 72 h.
The next series relates to A2780. In words: cells. The class given is functional, cell-based. To be noted: Homo sapiens, A2780, 72 h.
A further series relates to HepG2. In words: cells. The class given is functional, cell-based. The settings on record: Homo sapiens, HepG2, 72 h.
Series [22] relates to RPMI-8226. In words: Antiproliferative activity against human RPMI-8226 cells assessed as inhibition of cell growth incubated for 48 hrs by MTT assay. It is filed as functional, cell-based. The settings on record: RPMI-8226, 48 h. A general note: Tetrazolium dyes change colour on reduction, which living cells bring about.
The test system of series [23] is U-266. In words: cells. It is filed as functional, cell-based. To be noted: Homo sapiens, U-266, 48 h.
Another series deals with MM1.S. In words: Antiproliferative activity against human MM1.S cells assessed as inhibition of cell growth incubated for 48 hrs by MTT assay. The class given is functional, cell-based.
Series [24] is described as follows: Cytotoxicity against HEK293 cells assessed as inhibition of cell growth incubated for 48 hrs by MTT assay. The settings on record: human. The class given is toxicity, cell-based.
Series [25] in a line: Cytotoxicity against human L02 cells assessed as inhibition of cell growth incubated for 48 hrs by MTT assay. The class given is toxicity, cell-based.
Series [26] has as its target T1, Protein deacetylase HDAC6. In words: Inhibition of HDAC6 (unknown origin) using Boc-Lys(acetyl)-AMC as substrate preincubated for 5 mins followed by substrate addition and measured after 30 mins by fluorescence based assay.
Series [27] is described as follows: Metabolic stability in mouse liver microsomes assessed as half life at 1 uM incubated in presence of NADPH by LC-MS/MS analysis. It is filed as ADME, Microsome.
Series [28] has as its system RPMI-8226. In words: Antitumor activity against human RPMI-8226 cells xenografted in BALB/c-nu mouse assessed as reduction in tumor growth by measuring relative increment ratio T/C at 50 mg/kg/day, ip administered for 19 days and measured every 3 days by vernier caliper relative to control. It is filed as functional. The settings on record: time 19 day.

SMILES strings stand for the structures.

Chain of Focal adhesion kinase 1 (Q05397 whole entry): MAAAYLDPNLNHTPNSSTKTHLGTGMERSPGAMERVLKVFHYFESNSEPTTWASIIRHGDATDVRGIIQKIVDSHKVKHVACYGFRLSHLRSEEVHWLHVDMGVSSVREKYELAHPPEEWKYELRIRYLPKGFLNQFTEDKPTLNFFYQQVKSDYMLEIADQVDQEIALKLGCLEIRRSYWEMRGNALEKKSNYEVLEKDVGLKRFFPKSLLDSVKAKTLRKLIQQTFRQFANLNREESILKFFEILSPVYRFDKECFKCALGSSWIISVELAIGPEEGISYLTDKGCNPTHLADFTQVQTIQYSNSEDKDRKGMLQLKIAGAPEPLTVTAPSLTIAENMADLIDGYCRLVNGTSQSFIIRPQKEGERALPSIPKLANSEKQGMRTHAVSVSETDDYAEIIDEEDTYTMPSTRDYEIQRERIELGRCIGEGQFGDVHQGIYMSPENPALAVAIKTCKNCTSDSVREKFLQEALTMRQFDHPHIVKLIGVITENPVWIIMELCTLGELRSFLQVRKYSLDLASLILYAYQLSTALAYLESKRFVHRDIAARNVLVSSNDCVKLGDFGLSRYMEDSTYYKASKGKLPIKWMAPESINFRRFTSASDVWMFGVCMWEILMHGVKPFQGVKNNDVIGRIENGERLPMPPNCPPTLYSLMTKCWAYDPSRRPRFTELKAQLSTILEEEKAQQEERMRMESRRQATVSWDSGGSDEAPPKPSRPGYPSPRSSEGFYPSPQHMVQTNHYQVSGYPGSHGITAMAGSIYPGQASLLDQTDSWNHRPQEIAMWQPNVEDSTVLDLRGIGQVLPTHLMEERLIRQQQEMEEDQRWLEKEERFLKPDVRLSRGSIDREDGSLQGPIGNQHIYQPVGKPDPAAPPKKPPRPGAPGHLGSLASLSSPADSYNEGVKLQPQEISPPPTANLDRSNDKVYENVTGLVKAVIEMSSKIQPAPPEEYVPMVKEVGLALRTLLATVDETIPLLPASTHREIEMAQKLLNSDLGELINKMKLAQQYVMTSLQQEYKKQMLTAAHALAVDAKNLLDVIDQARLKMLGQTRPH
Chain of MAP kinase-interacting serine/threonine-protein kinase 2 (Homo sapiens) (Q9HBH9 whole entry, looked up): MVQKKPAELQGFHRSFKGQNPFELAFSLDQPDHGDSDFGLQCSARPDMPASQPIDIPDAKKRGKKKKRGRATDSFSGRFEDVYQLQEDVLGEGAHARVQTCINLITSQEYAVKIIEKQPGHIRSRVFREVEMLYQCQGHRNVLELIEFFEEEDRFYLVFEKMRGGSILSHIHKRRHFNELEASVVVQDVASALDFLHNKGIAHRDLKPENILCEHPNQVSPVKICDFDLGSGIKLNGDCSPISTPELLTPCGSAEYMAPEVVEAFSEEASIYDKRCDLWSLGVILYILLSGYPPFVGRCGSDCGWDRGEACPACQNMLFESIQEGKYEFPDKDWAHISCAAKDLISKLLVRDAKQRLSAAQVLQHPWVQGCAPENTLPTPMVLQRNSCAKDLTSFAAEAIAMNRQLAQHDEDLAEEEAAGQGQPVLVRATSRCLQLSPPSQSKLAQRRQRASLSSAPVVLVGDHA
Chain of MAP kinase-interacting serine/threonine-protein kinase 1 (Homo sapiens) (Q9BUB5 whole entry, looked up): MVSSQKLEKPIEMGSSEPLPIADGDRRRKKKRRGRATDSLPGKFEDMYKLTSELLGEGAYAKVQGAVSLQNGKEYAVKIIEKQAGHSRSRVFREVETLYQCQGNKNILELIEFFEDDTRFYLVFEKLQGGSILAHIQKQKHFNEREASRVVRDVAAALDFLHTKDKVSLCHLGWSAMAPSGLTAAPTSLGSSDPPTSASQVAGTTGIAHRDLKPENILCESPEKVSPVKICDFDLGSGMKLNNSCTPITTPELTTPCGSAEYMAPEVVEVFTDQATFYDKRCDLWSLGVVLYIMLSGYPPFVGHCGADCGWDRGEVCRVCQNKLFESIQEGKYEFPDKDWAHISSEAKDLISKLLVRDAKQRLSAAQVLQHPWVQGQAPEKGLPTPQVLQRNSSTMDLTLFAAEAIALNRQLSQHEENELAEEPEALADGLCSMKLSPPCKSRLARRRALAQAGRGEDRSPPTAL
Description for A2780: Antiproliferative activity against human A2780 cells assessed as inhibition of cell growth measured after 72 hrs by CCK-8 assay
Description for A549: Antiproliferative activity against human A549 cells assessed as inhibition of cell growth measured after 72 hrs by CCK-8 assay
Description for FaDu: Antiproliferative activity against human FaDu cells assessed as inhibition of cell growth measured after 72 hrs by CCK-8 assay
Description for K562: Antiproliferative activity against human K562 cells assessed as inhibition of cell growth measured after 72 hrs by CCK-8 assay
Description for MDA-MB-231: Antiproliferative activity against human MDA-MB-231 cells assessed as inhibition of cell growth measured after 72 hrs by CCK-8 assay
Description for MDA-MB-468: Antiproliferative activity against human MDA-MB-468 cells assessed as inhibition of cell growth measured after 72 hrs by CCK-8 assay
Description for U-937: Antiproliferative activity against human U-937 cells assessed as inhibition of cell growth measured after 72 hrs by CCK-8 assay

On to `CNC(=O)c1ccccc1Nc1nc(Nc2ccc(NC(=O)CCCCCCC(=O)NO)cc2)ncc1Cl`, for which the IC50 – broadly, the concentration at which inhibition is half-maximal – with KYSE-450 [1] came out at 182 nM; in the series on MGC-803 [2], 3.9 nM; with BGC-823, 15.4 nM; in the series with HGC-27, 18.4 nM; in series [8] it was 16 nM; at Focal adhesion kinase 1, 132 nM. In the series on HCT-116 [9], this compound displayed an IC50 of 182 nM. Besides, the inhibition in vivo at 20 mg/kg in the series on MGC-803 [3] amounted to 53.5%. Besides, the “Ratio IC50” value in the series with KYSE-450 [4], in the series on HCT-116 [5], in the series with KYSE-450 [6] and with HCT-116 [7] was 2.8 throughout.

With `CC(C)n1cnc2c(-c3cccc(OCCCC(=O)NO)c3)nc(N3CCOCC3)nc21`, the half-life (usually the time in which the quantity being followed falls by half) in series [10] is more than 45 min; in series [12] it was more than 45 min; in series [14], 113 min. The same compound returned an IC50 against Histone deacetylase [11] of 35 nM. Moreover, the MTD (usually the largest dose that counted as tolerated) in series [13] was 200 mg/kg. Also, the Tmax – broadly, the time at which the peak concentration occurs – in [15] is 9 min. In addition, the Cmax (as a rule, the peak of the concentration-time curve) in [16] is 1620 ng/mL. Besides, the bioavailability (commonly dose-corrected exposure relative to a reference, in per cent) in series [17] is 21%.

As for `O=C(CCCCCCC(=O)Nc1ccc2ncnc(Nc3ccc(F)cc3)c2n1)NO`, the GI50 (usually the concentration at which growth is held to half of that of the control) in the series on PC-3 came out at 2910 nM. On Histone deacetylase [18], this compound yielded an IC50 of 780 nM. Also, the inhibition (usually the drop in the measured response relative to a control, in per cent) turned out to be 54% in series [19] and 70% in [20].

For `COc1cc(Nc2nc(N3CCN(c4ncc(C(=O)NO)cn4)CC3)ncc2Cl)cc(OC)c1`, the IC50 with K562, in the series with U-266 [21], in the series with U-937, with C6, in the series with FaDu and in the series with MDA-MB-231 was 280 nM throughout. Also, the IC50 in the series on MDA-MB-468, with A549, in the series on A2780 and in the series on HepG2 was 280 nM each time.

For `O=C(NO)c1ccc(CNc2ncnc3[nH]ccc23)cc1`, the IC50 in the series on RPMI-8226 [22] was 620 nM; in the series on U-266 [23], 620 nM; in the series with MM1.S, 620 nM; in series [26], 10 nM. The IC50 at 48 h in [24] and in [25] was more than 50000 nM in each case. Also, the half-life at 1 µM in series [27] was more than 60 min. In addition, the T/C (commonly the result in the treated group divided by that in the control group, in per cent) in the series with RPMI-8226 [28] is on record as 70%.
